Assay [1] has as its system H. contortus xL3 larvae. The assay is described as follows: Motility assay of exsheathed third-stage larvae (xL3) of H. contortus. The class given is cell-based, Haemonchus contortus. As to conditions: 25 μM and 100 μM compound. The procedure: The effects of compound 1 were assessed in a motility assay using exsheathed third-stage larvae (xL3s) of H. contortus in 96-well microculture plates (Corning 3635; Life Sciences, USA) and the control compounds moxidectin and monepantel, following the published protocol. In brief, 1 was diluted to the final concentration of 100 µM using Luria Bertani medium (LB) supplemented with 100 IU/mL of penicillin, 100 μg mL^−1 of streptomycin and 2.5 μg mL^−1 of amphotericin (LB*), and then dispensed in triplicate into wells of a 96-well microculture plate using a multichannel pipette. Additionally, the negative controls (LB*, LB* + 0.5% solvent; six wells each), and positive controls (20 µM monepantel; Zolvix, Novartis Animal Health, Switzerland and 20 µM moxidectin; Cydectin, Virbac, France; triplicate wells) and xL3s (~300 per well) were dispensed into wells of the plate using an automated multichannel pipette. Following incubation at 38 °C and 10% CO2 for 72 h, a video recording of 5 s duration was taken of each well using a grayscale camera (Rolera Bolt, QImaging, Canada) and a motorized X-Y axis stage (BioPoint2, Ludl Electronic Products, USA). Videos were processed to calculate a motility index (MI) using an algorithm described previously.

Assay [2] concerns TPP from S. maltophilia. As to the kind of experiment: Phosphatase end-point assay, S. maltophilia TPP. As to conditions: 25 μM compound.
Procedure: (§3) Phosphatase end-point assays were carried out following a previously established protocol[35]. Briefly, the phosphatase activity of Acey-TPP and Tcan-TPP was assessed using 500 μM trehalose-6-phosphate and 10 μM enzyme to be tested. Reactions were carried out in a volume of 50 μL in assay buffer (100 mM NaCl, 20 mM TRIS, pH 7.5). Individual compounds were added to the reaction mixtures at a final concentration of 25 μM, followed by incubation for 5 min before reactions were initiated by the addition of substrate (final DMSO concentration of 4%).
(§4) Reactions were allowed to proceed for 5 min before quenching with 100 μL of BIOMOL® Green reagent (Enzo Life Sciences, New York, NY, USA). Absorbance at 620 nm was determined using a BioTek® Synergy 2 plate reader (BioTek, Winooski, VT, USA) after an incubation period of 15 min for colour development. All reactions were set up in triplicate in 96-well plates (Corning, Sigma-Aldrich, NSW, Australia) at 25 °C and control experiments in the absence of enzyme were used to correct for background absorbance.
(§5) Raw data were exported as spreadsheets from the plate reader and assembled for statistical analysis with R[48] using the software jBar[49] for calculation of means and standard errors, background correction, normalisation and significance evaluation by a two-sided t-test.
In assay [3] the target is TPP from M. tuberculosis (Mycobacterium tuberculosis, UniProt P9WFZ5). As to the kind of experiment: Phosphatase end-point assay, M. tuberculosis TPP. Type of assay: biochemical. As to conditions: 25 μM compound.
The test system of assay [4] is TPP from S. pneumoniae. As to the kind of experiment: Phosphatase end-point assay, S. pneumoniae TPP. As to conditions: 25 μM compound.
Procedure: as §3, §4, §5
Assay [5] addresses Hcon-TPP1 (Haemonchus contortus, UniProt A0A7I4Z3L8). The assay is described as follows: biochemical. As to conditions: for Ki: read-out: app. Ki, Hcon-TPP1, assuming a competitive inhibition model; for inhibition at 25 µM: read-out: inhibition of Hcon-TPP1 enzyme activity. The procedure:
(§1) Compounds were prepared in stocks of increasing concentration such that only 2 μL was added to reaction wells, thus keeping the DMSO concentration consistent at 4%. Enzyme in the absence of compound (with DMSO only) was run as a control and after correction for background absorbance, all test wells were scaled relative to the enzyme-only control. IC50 values were determined through fitting using either the software application SDAR[50] or DRfit[51].

The target of assay [6] is Acey-TPP (Ancylostoma ceylanicum, UniProt A0A016UGW6). The assay is described as follows: biochemical. The settings on record: for inhibition at 25 µM: read-out: inhibition of Acey-TPP enzyme activity. How it is done: as §1
The test system of assay [7] is Tcan-TPP-C215S. As to the kind of experiment: Phosphatase end-point assay, C215S mutant of T. canis TPP. The class given is biochemical, Toxocara canis. The settings on record: 25 μM compound.
Assay [8] has as its target Paer-ecTPP (Pseudomonas aeruginosa, UniProt B3G2E1). The assay is described as follows: Phosphatase end-point assay, extra-chromosomal TPP from P. aeruginosa. The class given is biochemical. The procedure:
as §1

In assay [9] the target is Tcan-TPP (Toxocara canis, UniProt A0A0B2V3X6). As to the kind of experiment: biochemical. Type of assay: biochemical. The procedure: as §1
For assay [10], the system named is T. canis L3 larvae. As to the kind of experiment: L3 larvae survival assay, T. canis. The class given is cell-based. The procedure:
(§2) Control larvae were maintained in 0.4% DMSO in Minimal Essential Medium. The survival of L3s exposed to the compound was assessed at several time points after the start of the incubation using a light microscope (at 40× maginification).

The test system of assay [11] is T. cati L3 larvae. As to the kind of experiment: L3 larvae survival assay, T. cati. Type of assay: cell-based. The procedure: as §2
Assay [12] concerns the target TPPs from different nematode and bacterial organisms. As to conditions: read-out: inhibition constants; cited from earlier work.
Assay [13] has as its system mycobacterial TPPs. The arrangement: method as in PMID 30402996. The settings on record: cited from earlier work.
The mark [14] stands for this setting: listed as N-(phenylthio)phthalimide.
The mark [15] stands for this setting: 25 μM compound, compared with uninhibited enzyme.

This is an account of results in PMC6838324, “A suicide inhibitor of nematode trehalose-6-phosphate phosphatases” (Scientific Reports, 2019).

Several values for one entry are separate records, joined by “and”; a condition that tells them apart may be missing. Equal values may be shown once. Entries after “also recorded” stand apart in the source; their conditions may differ. Read-outs that look alike come from different tables or passages of the source. A value given as a limit tells only on which side of the number the result lay.

Chain of Tcan-TPP (A0A0B2V3X6 entry or part of it): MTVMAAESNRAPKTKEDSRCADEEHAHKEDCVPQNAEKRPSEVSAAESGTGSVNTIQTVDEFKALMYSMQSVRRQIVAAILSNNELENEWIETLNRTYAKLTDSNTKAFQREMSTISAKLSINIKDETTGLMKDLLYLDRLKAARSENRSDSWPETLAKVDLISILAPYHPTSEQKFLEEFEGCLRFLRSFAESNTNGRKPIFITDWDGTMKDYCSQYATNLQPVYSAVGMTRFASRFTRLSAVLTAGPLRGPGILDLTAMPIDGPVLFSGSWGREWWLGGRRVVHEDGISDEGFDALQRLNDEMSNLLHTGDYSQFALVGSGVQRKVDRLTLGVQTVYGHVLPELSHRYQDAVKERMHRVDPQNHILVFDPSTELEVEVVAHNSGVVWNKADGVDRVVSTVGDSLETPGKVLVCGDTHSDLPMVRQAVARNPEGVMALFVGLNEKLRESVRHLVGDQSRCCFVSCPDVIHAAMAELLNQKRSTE
Chain of Paer-ecTPP (B3G2E1 entry or part of it): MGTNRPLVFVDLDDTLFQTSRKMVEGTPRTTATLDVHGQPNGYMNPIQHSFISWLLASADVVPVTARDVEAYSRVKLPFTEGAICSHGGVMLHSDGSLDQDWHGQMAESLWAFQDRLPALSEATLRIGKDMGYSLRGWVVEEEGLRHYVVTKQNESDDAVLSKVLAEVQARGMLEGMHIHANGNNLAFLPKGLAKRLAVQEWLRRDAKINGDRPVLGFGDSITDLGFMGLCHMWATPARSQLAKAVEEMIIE
Chain of Acey-TPP (A0A016UGW6 entry or part of it): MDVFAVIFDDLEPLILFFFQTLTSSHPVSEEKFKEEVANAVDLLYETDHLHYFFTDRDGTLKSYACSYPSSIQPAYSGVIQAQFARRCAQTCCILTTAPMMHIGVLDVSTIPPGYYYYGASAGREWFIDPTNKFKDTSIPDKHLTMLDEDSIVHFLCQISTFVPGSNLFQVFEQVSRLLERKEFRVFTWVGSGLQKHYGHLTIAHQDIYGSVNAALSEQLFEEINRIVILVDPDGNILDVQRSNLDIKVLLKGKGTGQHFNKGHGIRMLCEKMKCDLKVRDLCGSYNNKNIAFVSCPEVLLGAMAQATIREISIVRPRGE
Chain of Hcon-TPP1 (A0A7I4Z3L8 entry or part of it): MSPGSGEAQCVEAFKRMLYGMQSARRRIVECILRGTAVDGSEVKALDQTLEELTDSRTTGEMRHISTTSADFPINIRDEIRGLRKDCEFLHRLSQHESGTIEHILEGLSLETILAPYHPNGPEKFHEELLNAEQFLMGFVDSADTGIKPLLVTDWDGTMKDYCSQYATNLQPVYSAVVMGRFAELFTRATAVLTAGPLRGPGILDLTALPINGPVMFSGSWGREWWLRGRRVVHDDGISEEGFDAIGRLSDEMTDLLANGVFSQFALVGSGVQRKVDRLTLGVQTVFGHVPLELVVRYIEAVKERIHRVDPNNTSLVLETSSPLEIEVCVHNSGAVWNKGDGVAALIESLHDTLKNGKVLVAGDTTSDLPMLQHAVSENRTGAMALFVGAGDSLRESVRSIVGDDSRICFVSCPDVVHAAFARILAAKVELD
Chain of TPP from M. tuberculosis (P9WFZ5 whole entry, looked up): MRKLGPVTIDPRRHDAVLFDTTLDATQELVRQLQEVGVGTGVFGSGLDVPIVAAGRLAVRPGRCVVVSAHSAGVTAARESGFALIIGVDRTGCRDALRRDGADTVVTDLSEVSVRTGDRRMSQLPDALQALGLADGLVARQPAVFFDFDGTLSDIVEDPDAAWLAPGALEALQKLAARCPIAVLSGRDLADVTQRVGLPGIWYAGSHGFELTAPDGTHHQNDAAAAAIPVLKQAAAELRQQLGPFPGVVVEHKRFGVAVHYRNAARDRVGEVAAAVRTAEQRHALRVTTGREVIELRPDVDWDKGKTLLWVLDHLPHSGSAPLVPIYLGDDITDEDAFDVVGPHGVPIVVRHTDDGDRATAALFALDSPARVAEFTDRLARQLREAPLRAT

Regarding `O=C1c2ccccc2C(=O)N1Sc1ccccc1` [Compound 1, N-(phenylthio)phthalimide], the “motility of exsheathed H. contortus larvae (xL3)” value in [1] is given as “only weakly impaired”; in assay [1] (setting [14]), “no bioactivity was observed; also recorded: no significant effects”. Also, the “inhibition of phosphatase activity” value in [2] is recorded as “only the extra-chromosomal TPP from P. aeruginosa was susceptible to inhibition”; in [3], “only the extra-chromosomal TPP from P. aeruginosa was susceptible to inhibition”; in assay [4], “only the extra-chromosomal TPP from P. aeruginosa was susceptible to inhibition”; in assay [8] (25 μM compound, P. aeruginosa extra-chromosomal TPP), “susceptible to inhibition”. The “concentration at which enzymatic activity is almost entirely suppressed” value in assay [5] (H. contortus TPP, dose-response) was greater than 25 µM. For the same compound, the 50% inhibitory concentration (IC50) (as a rule, the midpoint of a concentration-inhibition curve) in assay [5] (Hcon-TPP1, phosphatase end-point assay) amounted to 6.6 ± 0.36 µM; in assay [8] (Paer-ecTPP, phosphatase end-point assay), 2.1 ± 0.19 µM; in assay [9], 0.89 ± 0.037 µM. For the same compound, the Ki was 6 µM in [5]; 5.8 µM in [5] (setting [14]); 2.1 µM in assay [8] (Paer-ecTPP, assuming a competitive inhibition model, read-out: app. Ki); 0.6 µM and 0.56 µM in assay [9] (app. Ki, Tcan-TPP, assuming a competitive inhibition model). In addition, the inhibition (usually the drop in the measured response relative to a control, in per cent) at 25 µM was 82% in assay [5] and greater than 50% in assay [6]. Further, the “inhibitory effect on phosphatase activity under reducing conditions” value in assay [6] (25 μM compound, 1 mM DTT, Acey-TPP) is listed as “entirely suppressed”; in [9] (25 μM compound, 1 mM DTT, Tcan-TPP), “entirely suppressed”. For the same compound, the “inhibition of Acey-TPP enzyme activity” value in [6] (setting [15]) is “complete annihilation”. Also, in assay [7], the “effect on enzymatic activity of mutant Tcan-TPP-C215S” value is “did not affect the enzymatic activity”. Besides, the “inhibition of Tcan-TPP enzyme activity” value in assay [9] (setting [15]) is “complete annihilation”. Besides, the lethality in assay [10] (T. canis larvae, 100 μM, after 24 h) is reported as greater than 80%; in assay [11] (T. cati larvae, 100 μM, after 3 h) it was greater than 80%. In addition, the LC50 amounted to 61 µM in [10] (Toxocara canis, 24 h, read-out: half maximum lethal concentration) and 9.3 µM in [11] (Toxocara cati, 24 h, read-out: half maximum lethal concentration (IC50 in survival assay)).

Regarding `O=C1NC(=O)c2ccccc21` [Compound 3, phthalimide], the inhibition at 25 µM in [5], in [6] and in assay [9] (read-out: inhibition of Tcan-TPP enzyme activity) was no more than 20% each time.

`O=S(=O)(O)OC[C@H]1O[C@H](O[C@H]2O[C@H](CO)[C@@H](O)[C@H](O)[C@H]2O)[C@H](O)[C@@H](O)[C@@H]1O` [trehalose-6-sulphate]: the Ki in assay [12] was 50 to 300 µM.

In the case of `OCC1=C[C@@H](N[C@H]2C[C@H](CO)[C@@H](O[C@H]3O[C@@H](CO)[C@H](O)[C@@H](O)[C@@H]3O)[C@H](O)[C@H]2O)[C@H](O)[C@@H](O)[C@@H]1O` [validamycin A], in assay [13], the IC50 was 12600 to 15000 µM.
